Results published in patent US12440486B2, “RBP4 antagonists for treatment and prevention of non-alcoholic fatty liver disease and gout” (The Trustees of Columbia University in the City of New York, priority 2018, dated 2025).

How the values were obtained:
[1] = biological target: T1, RBP4 (Homo sapiens, UniProt P02753); experiment: SPA assay measuring displacement of 3H-retinol from purified human RBP4; assay type: binding; conditions: for IC50: binding to human RBP4, 3H-retinol at 10 nM as radioligand; for ability to function as RBP4 ligands (competition binding): displacement of radioactive retinol from purified human RBP4
Description: 3H-retinol at 10 nM was used as a radioligand. […] Contacting residues are labeled and illustrated in stick format (MOE, Chemical Computing Group, Inc., Montreal, CA).
The affinity of palmitic acid, oleic acid, linoleic acid, and docosahexaenoic acid for RBP4 was tested using a SPA assay that measures displacement of radioactive retinol from purified human RBP4 (FIG. 21A).

[2] = biological target: T1, RBP4; conditions: Berni 1992; cited from earlier work
[3] = biological target: RBP4-TTR interaction (Homo sapiens, UniProt P02753); conditions: Berni 1992, Schaffer 1993; cited from earlier work
[4] = biological target: RBP4 (Rattus norvegicus, UniProt P04916); conditions: Adams 1995; cited from earlier work
[5] = system: ob/ob mice; conditions: ob/ob mice fed a high-fat diet, Koh 2012; cited from earlier work

SMILES	IC50 [1] [µM]	ability to function as RBP4 ligands (competition binding) [1]	binding to RBP4 [2]	RBP4-TTR interaction [3]	serum RBP4 and retinol [4]	weight gain, insulin resistance and fatty liver [5]
CC/C=C\C/C=C\C/C=C\C/C=C\C/C=C\C/C=C\CCC(=O)O [Docosahexanoic acid (DHA), docosahexaenoic acid]	49.9	–	–	–	–	–
CCCCCCCCCCCCCCCC(=O)O [palmitic acid]	22.6	weak RBP4 ligands	–	–	–	–
CCCCC/C=C\C/C=C\CCCCCCCC(=O)O [linoleic acid]	17.3	weak RBP4 ligands	–	–	–	–
CC1=C(/C=C/C(C)=C/C=C/C(C)=C/C(=O)Nc2ccc(O)cc2)C(C)(C)CCC1 [fenretinide, N-(4-hydroxy-phenyl)retinamide]	–	–	bind to RBP4	disrupt the RBP4-TTR interaction	reduce serum RBP4 and retinol	decreases
CCCCCCCC/C=C\CCCCCCCC(=O)O [oleic acid]	33	weak RBP4 ligands	–	–	–	–
